Reference: ChEMBL document CHEMBL3593237, “Synthesis and biological evaluation of isoflavone amide derivatives with antihyperlipidemic and preadipocyte antiproliferative activities” (Bioorg Med Chem, 2015)
Active and inactive are the calls of the source. The rule behind the calls is not given here.

Tests used:
3T3-L1 = assay: Inhibition of cell proliferation of mouse 3T3L1 cells at 100 uM incubated for 48 hrs by MTT assay; format: functional, cell-based
[1] = target: T1, Cholesteryl ester transfer protein (Oryctolagus cuniculus) (UniProt P22687); assay: Inhibition of CETP in rabbit serum at 100 uM incubated for 1 hr using NBD-labeled cholesterol in HDL and LDL by fluorescence based assay
T1 sequence (whole entry): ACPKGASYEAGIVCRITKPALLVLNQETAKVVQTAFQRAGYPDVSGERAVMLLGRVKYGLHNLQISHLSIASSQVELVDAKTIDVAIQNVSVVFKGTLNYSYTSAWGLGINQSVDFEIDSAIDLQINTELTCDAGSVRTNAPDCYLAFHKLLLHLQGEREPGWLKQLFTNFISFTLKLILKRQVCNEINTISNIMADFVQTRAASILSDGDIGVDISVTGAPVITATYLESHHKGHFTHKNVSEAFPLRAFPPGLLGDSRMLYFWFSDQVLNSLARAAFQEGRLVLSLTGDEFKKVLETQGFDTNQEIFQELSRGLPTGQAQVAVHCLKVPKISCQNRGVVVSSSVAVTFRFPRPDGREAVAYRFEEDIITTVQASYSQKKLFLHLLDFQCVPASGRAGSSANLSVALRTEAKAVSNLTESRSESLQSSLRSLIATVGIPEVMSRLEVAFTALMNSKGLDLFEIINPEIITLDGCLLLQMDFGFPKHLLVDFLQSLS

[2] = target: T2, Cholesteryl ester transfer protein (Oryctolagus cuniculus, UniProt P22687); assay: Inhibition of CETP in rabbit serum incubated for 1 hr using NBD-labeled cholesterol in HDL and LDL by fluorescence based assay
T2 sequence (P22687 whole entry): T1 sequence (whole entry)

HepG2 = assay: Toxicity against human HepG2 cells assessed as inhibition of cell proliferation at 100 uM incubated for 48 hrs by MTT assay; format: cell-based; conditions: hepg2, 48 h
Syrian golden hamster [3] = assay: Antihyperlipidemic activity in Syrian golden hamster model of high lipid diet-induced dyslipidemia model assessed as reduction in LDL-C at 50 mg/kg/day, po for 28 days; format: functional, Mesocricetus auratus; set-up: scale not given: the % may be the effect or the level left
Syrian golden hamster [4] = assay: Antihyperlipidemic activity in Syrian golden hamster model of high lipid diet-induced dyslipidemia model assessed as increase in HDL-C at 50 mg/kg/day, po for 28 days; format: functional, Mesocricetus auratus

**Q.** Which inhibition (3T3-L1) does the source give for `CCCCCCCC/C=C\CCCCCCCC(=O)Oc1ccc2c(=O)c(-c3ccc(OC)cc3)coc2c1` here?
**A.** Active

**Q.** `CC(=O)Oc1ccc2c(=O)c(-c3ccc(NC(=O)COc4ccccc4C)cc3)coc2c1` was tested. Which inhibition [1] did it give?
**A.** Active

**Q.** What about the IC50 [2] of the same compound?
**A.** 8.42 µM

**Q.** What about the inhibition (3T3-L1) of the same compound?
**A.** Active

**Q.** Which inhibition [1] does the source give for `CC(=O)Oc1ccc2c(=O)c(-c3ccc(NC(=O)COc4ccccc4)cc3)coc2c1` here?
**A.** Active

**Q.** And the IC50 [2]?
**A.** 1.52 µM

**Q.** And the inhibition (3T3-L1)?
**A.** Active

**Q.** What about the Activity (HepG2) of the same compound?
**A.** Non-toxic

**Q.** What about the Activity (Syrian golden hamster [3]) of the same compound?
**A.** 44.6%

**Q.** And the Activity (Syrian golden hamster [4])?
**A.** 66%

**Q.** With `O=C(COc1ccccc1)Nc1ccc(-c2coc3cc(O)ccc3c2=O)cc1` as the compound, how does the inhibition [1] read?
**A.** Active

**Q.** And the inhibition (3T3-L1)?
**A.** inactive

**Q.** With `Cc1ccccc1OCC(=O)Nc1ccc(-c2coc3cc(O)ccc3c2=O)cc1` as the compound, how does the inhibition [1] read?
**A.** Active

**Q.** What about the inhibition (3T3-L1) of the same compound?
**A.** inactive

**Q.** `O=C(COc1cccc2ccccc12)Nc1ccc(-c2coc3cc(O)ccc3c2=O)cc1` was tested. Which inhibition [1] did it give?
**A.** Active

**Q.** What about the inhibition (3T3-L1) of the same compound?
**A.** inactive

**Q.** With `CC(=O)Oc1ccc2c(=O)c(-c3ccc(NC(=O)COc4cccc(C)c4)cc3)coc2c1` as the compound, how does the inhibition [1] read?
**A.** inactive

**Q.** And the inhibition (3T3-L1)?
**A.** Active

**Q.** What does the source list for `COc1ccccc1OCC(=O)Nc1ccc(-c2coc3cc(O)ccc3c2=O)cc1`?
**A.** inhibition [1]: inactive; inhibition (3T3-L1): inactive

**Q.** How did the inhibition [1] turn out when `CC(=O)Oc1ccc2c(=O)c(-c3ccc(NC(=O)COc4cccc5ccccc45)cc3)coc2c1` was run?
**A.** Active

**Q.** And the inhibition (3T3-L1)?
**A.** Active

**Q.** `COc1cc(F)c(C(C)C)cc1-c1ccc(C(F)(F)F)cc1CN1C(=O)O[C@H](c2cc(C(F)(F)F)cc(C(F)(F)F)c2)[C@@H]1C` was tested. Which inhibition [1] did it give?
**A.** Active

**Q.** For `Cc1cccc(OCC(=O)Nc2ccc(-c3coc4cc(O)ccc4c3=O)cc2)c1`, which inhibition [1] is on record?
**A.** Active

**Q.** What about the inhibition (3T3-L1) of the same compound?
**A.** inactive

**Q.** `Cc1ccc(OCC(=O)Nc2ccc(-c3coc4cc(O)ccc4c3=O)cc2)cc1` was tested. Which inhibition [1] did it give?
**A.** Active

**Q.** What about the inhibition (3T3-L1) of the same compound?
**A.** inactive

**Q.** Which results are given for `COc1ccccc1OCC(=O)Nc1ccc(-c2coc3cc(OC(C)=O)ccc3c2=O)cc1`?
**A.** inhibition [1]: inactive; inhibition (3T3-L1): Active

**Q.** Which inhibition [1] does the source give for `CC(=O)Oc1ccc2c(=O)c(-c3ccc(NC(=O)COc4ccc(C)cc4)cc3)coc2c1` here?
**A.** inactive

**Q.** And the inhibition (3T3-L1)?
**A.** Active
